This assay has as its system spontaneous recurrent seizures. Kind of assay: "spontaneous recurrent seizures" (SRS) model of epilepsy. The assay is classed as in vivo. Conditions: rat, 20 mg/kg/day i.v. for 10 day. Here is the method: The “spontaneous recurrent seizures” (SRS) model of epilepsy is used to evaluate candidate compounds in a model for Phase 1 epileptogenesis (see, e.g., Mello, E. et al., Epilepsia (1993) 34:985; Cavalheiro, J. et al., Epilepsia (1991) 32:778). In the SRS model, an adult male Sprague-Dawley rat (c. 260 g) is given kainic acid by injection ([…].). Within 25 minutes, the animal enters status epilepticus, which typically lasts for 15-20 hours (although about 10% of animals die at this stage). The rat is allowed to spontaneously recover and is given food and water ad lib. and maintained on a 12 hour light/dusk cycle. Beginning on about day 13-15, the rats develop spontaneous recurrent seizures, which occur at the rate of about 4-5 per week. The rats are videotaped 8 hours per day, and the videotapes are reviewed for behavioral seizures (including head nodding, forelimb clonus, and rearing), which are counted. The animals are watched for a few weeks to a few months (2 weeks to three months), permitting evaluation of a sufficient number of seizures. An experimental compound for evaluation can be administered at either of two times: Time 1, on Day 1, after the cessation of status epilepticus but before the onset of SRS; or Time 2, on Day 30, when the rats have been experiencing SRS for about two weeks. […]

On to `O=C1NC(=O)C(c2ccccc2)(c2ccccc2)N1` [phenytoin], for which the “preventing the onset of seizures” value (administered at Time 1 (Day 1, before onset of SRS)) is on record as “ineffective”. The “effective at decreasing seizure frequency by 50% or more” value (administered at Time 2 (Day 30, established SRS)) is 75%.

Source of the values: patent publication US20050038000A1, “Methods and compositions for the treatment of amyloid-and epileptogenesis-associated diseases” (priority 2003, published 2005).
